Measured values reported in BindingDB's records for patent US8604046 (Sanofi, 2013).

Biological target: Histamine H3 receptor (Macaca mulatta, UniProt G7N499)
Test: Radioligand Binding Assay
Text: The compounds of this invention have been demonstrated to displace [3H]- methylhistamine radioligand binding to mammalian cell membranes expressing rhesus (Macacca Mulatta) H3 receptor. Additionally, the compounds of this invention have been demonstrated by GTPγS radioligand binding assay to inhibit rhesus H3 constitutive functional activity in cell membranes.

Sequence of Histamine H3 receptor (G7N499 whole entry): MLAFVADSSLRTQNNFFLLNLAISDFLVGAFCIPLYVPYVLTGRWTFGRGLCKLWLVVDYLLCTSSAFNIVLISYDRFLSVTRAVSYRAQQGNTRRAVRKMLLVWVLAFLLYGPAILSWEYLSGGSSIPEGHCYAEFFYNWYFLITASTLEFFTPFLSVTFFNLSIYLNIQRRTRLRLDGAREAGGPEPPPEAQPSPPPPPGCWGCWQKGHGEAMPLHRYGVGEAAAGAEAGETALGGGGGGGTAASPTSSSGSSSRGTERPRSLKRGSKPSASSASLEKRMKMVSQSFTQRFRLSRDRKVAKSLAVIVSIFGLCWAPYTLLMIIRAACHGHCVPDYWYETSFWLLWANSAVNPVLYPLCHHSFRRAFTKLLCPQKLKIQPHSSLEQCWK

C[C@H]1CCCN1C1CCN(c2ccc(N3CCC4(CCN(C(=O)OC(C)(C)C)CC4)C3=O)c(F)c2)CC1 [US8604046, 79]
Ki: 0.3 nM
